“And” between values parts separate entries of the source, which are not always exact repeats. Equal values may be shown once.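 Tested at 5 concentrations; 48 h exposure; 96-well plates; endpoints linearly interpolated, else capped at highest concentration. GI50 marks 50% less growth. Definition used: TGI = concentration required for complete inhibition of growth.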 Where a SMILES comes first, the peptide text is derived from it. [ ]: non-standard residue; d: D form. The star is where a group is joined. ξ: configuration not given here. X6 = FC(F)(F)c1cc(NC(=S)*)cc(C(F)(F)F)c1; ξF = NC(Cc1ccccc1)C(=O)O
Legend:
BT-549 breast = experiment: DTP human tumour cell line panel, 48 h
T-47D breast = experiment: DTP human tumour cell line panel, 48 h

Cn1c2ccccc2c2c(Nc3ccccc3)c3ccccc3nc21
GI50 (BT-549 breast): 21.3 µM
TGI (BT-549 breast): 47.8 µM
GI50 (T-47D breast): 40.5 µM
TGI (T-47D breast): > 100 µM

CO[C@H](C(=O)[C@@H](O)[C@@H](C)O)[C@@H]1Cc2cc3cc(O[C@H]4C[C@@H](O[C@H]5C[C@@H](O)[C@H](O)C(C)O5)[C@H](O)C(C)O4)c(C)c(O)c3c(O)c2C(=O)[C@H]1O[C@H]1C[C@@H](O[C@H]2C[C@@H](O[C@H]3C[C@](C)(O)C(=O)C(C)O3)[C@@H](O)C(C)O2)[C@H](O)C(C)O1 (stereo partly drawn)
GI50 (BT-549 breast): 0.0356 µM
TGI (BT-549 breast): 0.157 µM
GI50 (T-47D breast): 0.0663 µM

C=C(CN1CCN(c2ccc(Cl)cc2F)CC1)c1ccc(C(=O)Nc2ccccc2N)cc1
GI50 (BT-549 breast): 2.99 µM
TGI (BT-549 breast): > 65.3 µM
TGI (T-47D breast): > 100 µM

NC(=O)c1sc(-n2cnc3ccccc32)cc1OCc1ccccc1Br
GI50 (BT-549 breast): 9.68 µM
TGI (BT-549 breast): > 25 µM
GI50 (T-47D breast): 23.1 µM
TGI (T-47D breast): > 25 µM

Clc1ccc2c(NCCCCNc3nc(N4CCCCC4)nc4ccccc34)ccnc2c1
GI50 (BT-549 breast): 1.78 µM
TGI (BT-549 breast): 4.1 µM
GI50 (T-47D breast): 2.12 µM
TGI (T-47D breast): 4.3 µM

O=C1/C(=C/c2cccc([N+](=O)[O-])c2)COc2ccc(O)cc21
GI50 (BT-549 breast): 2.19 µM
TGI (BT-549 breast): 4.46 µM
GI50 (T-47D breast): 2.24 µM
TGI (T-47D breast): 6.3 µM

CCCCCN(CCCCC)CC(O)c1cc(C)c2ccc3cc(C(C)C)ccc3c2c1 (stereo not drawn)
GI50 (BT-549 breast): 1.85 µM
TGI (BT-549 breast): 3.51 µM
GI50 (T-47D breast): 1.95 µM
TGI (T-47D breast): 4.38 µM

NC(=O)c1cccc2cn(-c3ccc([C@@H]4CCCNC4)cc3)nc12
GI50 (BT-549 breast): 18.8 µM
TGI (BT-549 breast): 40.9 µM
GI50 (T-47D breast): 12.9 µM
TGI (T-47D breast): 35.5 µM

COC(=O)[C@@H](NC(=O)CNC(=O)[C@H]1CCCN1C(=O)C(Cc1ccccc1)NC(=S)Nc1cc(C(F)(F)F)cc(C(F)(F)F)c1)C(C)C (stereo partly drawn) (X6-[ξF][dP]GV-OMe)
GI50 (BT-549 breast): 1.85 µM
TGI (BT-549 breast): 3.78 µM
GI50 (T-47D breast): 3.87 µM
TGI (T-47D breast): 28.8 µM

COc1ccc(C(=O)Cn2c(C(=O)c3ccccc3)nc(-c3ccc(OC)cc3)c2-c2ccc(OC)cc2)cc1
GI50 (BT-549 breast): > 100 µM
TGI (BT-549 breast): > 100 µM
GI50 (T-47D breast): > 100 µM
TGI (T-47D breast): > 100 µM

COC1CCC(N2C(=O)CNc3ncc(-c4ccc(C(C)(C)O)nc4)nc32)CC1 (stereo not drawn)
GI50 (BT-549 breast): 0.329 µM and 0.0572 µM
TGI (BT-549 breast): 3.6 µM and 0.991 µM
GI50 (T-47D breast): 0.159 µM and 0.0258 µM
TGI (T-47D breast): 0.786 µM and 0.306 µM

O=C(Nc1ccc(Cl)c(Cl)c1)Nc1ccc(Cl)c(Cl)c1
GI50 (BT-549 breast): 1.72 µM and 4.01 µM
TGI (BT-549 breast): 5.96 µM and 31.6 µM
GI50 (T-47D breast): 2.01 µM and 4.22 µM
TGI (T-47D breast): 8.12 µM and 49 µM

Cc1ccc(NC2=C(Cl)C(=O)N(Cc3ccccc3)C2=O)cc1O
GI50 (T-47D breast): 44.9 µM
TGI (T-47D breast): > 100 µM

CC1=C(C(=O)Nc2ccc(Cl)c(Cl)c2)C(c2cccc(Oc3ccccc3)c2)NC(=S)N1 (stereo not drawn)
GI50 (BT-549 breast): 5.94 µM
TGI (BT-549 breast): 12.5 µM
GI50 (T-47D breast): 10.9 µM
TGI (T-47D breast): 21.4 µM

OCc1ccc(N2CCC2c2ccc(F)cc2)cc1Cl (stereo not drawn)
GI50 (BT-549 breast): 21.2 µM
TGI (BT-549 breast): 49.9 µM
GI50 (T-47D breast): 0.209 µM
TGI (T-47D breast): 1.72 µM

O=C(/C=C/C12c3ccccc3C(c3ccccc31)C1C(=O)NC(=O)C12)c1ccncc1 (stereo not drawn)
GI50 (BT-549 breast): 2.06 µM
TGI (BT-549 breast): 5.93 µM
GI50 (T-47D breast): 2.82 µM
TGI (T-47D breast): 12.9 µM

COc1ccc(-c2nc3sccn3c2/C(N)=N/C(=N)N)cc1OC
GI50 (BT-549 breast): 22.8 µM
TGI (BT-549 breast): 43.3 µM
GI50 (T-47D breast): 29.1 µM
TGI (T-47D breast): > 100 µM

COc1cc(CNc2cnc3cc(N)cc(N)c3n2)cc(OC)c1
GI50 (BT-549 breast): 20.2 µM
TGI (BT-549 breast): 51.4 µM

NC(Cc1c[nH]c2c(O)cccc12)C(=O)O (stereo not drawn)
GI50 (BT-549 breast): > 100 µM
TGI (BT-549 breast): > 100 µM
GI50 (T-47D breast): > 100 µM
TGI (T-47D breast): > 100 µM

CCCCOC(=O)C1OC(O[C@H]2CCC3(C)C(CCC4(C)C3CC=C3C5CC(C)(C)CCC5(C(=O)O)CC[C@]34C)C2(C)C)C(OC2OC(CO)C(O)C(O)C2O)C(OC2OC(CO)C(O)C(O)C2O)C1O (stereo partly drawn)
GI50 (BT-549 breast): 21.5 µM
TGI (BT-549 breast): 41.6 µM
GI50 (T-47D breast): 48 µM
TGI (T-47D breast): > 100 µM

O=C1CC(c2ccc3c(c2)OCO3)Nc2ccccc21 (stereo not drawn)
GI50 (BT-549 breast): 5.99 µM
TGI (BT-549 breast): 55.5 µM
GI50 (T-47D breast): 5.23 µM
TGI (T-47D breast): 73.9 µM

O=C1C(Cl)=C(Nc2cccc(Cl)c2)C(=O)N1Cc1ccc(Cl)cc1Cl
GI50 (BT-549 breast): 0.0663 µM
TGI (BT-549 breast): 7.48 µM
GI50 (T-47D breast): 1.72 µM
TGI (T-47D breast): > 41.8 µM

CC1(C)CCc2c(c3c(c4c(=O)c(O)c(-c5ccc(O)cc5)oc24)OC(C)(C)CC3)O1
GI50 (T-47D breast): 72.7 µM
TGI (T-47D breast): > 100 µM

Cc1ccc(C(=O)/C(=C/c2ccc([N+](=O)[O-])cc2)SCc2ccc(Cl)cc2)cc1
GI50 (BT-549 breast): 1.93 µM
TGI (BT-549 breast): 4.09 µM
GI50 (T-47D breast): 2.9 µM
TGI (T-47D breast): 36.7 µM

COc1cc(/C=N/NC(=O)c2ccc(C(F)(F)F)nc2Nc2ccc(Cl)cc2C)ccc1O
GI50 (BT-549 breast): 1.34 µM
TGI (BT-549 breast): 9.69 µM
GI50 (T-47D breast): 1.49 µM
TGI (T-47D breast): 18 µM

COC1=CC(c2ccc[nH]2)=N/C1=C\c1[nH]c(C)c(C(=O)OC(C)C)c1C
GI50 (BT-549 breast): 0.061 µM
TGI (BT-549 breast): 2.68 µM
GI50 (T-47D breast): 0.0522 µM
TGI (T-47D breast): 1.74 µM

CC/C=C\CCC/C=C1/C(=O)C=C[C@@H]1C/C=C\CCCC(=O)OC
GI50 (T-47D breast): 5.16 µM
TGI (T-47D breast): 19.2 µM
